18 molecules from PubChem BioAssay (NCI) can be followed below.

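Method: 48-hour compound exposure of cells in 96-well plates, five concentrations, linear interpolation of endpoints. At the TGI there is no net growth.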 A value given as a limit tells only on which side of the number the result lay.

For the first assay, the system named is HL-60(TB) leukemia. Put plainly: NCI-60 cell line screen, 48 h.
Turning to `CC(=O)SCCC(NC(=S)Nc1ccccc1)P(=O)(Oc1ccccc1)Oc1ccccc1` (stereo not given), the TGI is more than 100 µM.

Consider `NC(=Nc1ccccc1Cl)c1ccccc1N`, for which the TGI was more than 100 µM.

`CCCCCCCC(CC(=O)NC(CO)C(=O)NC(CO)CC(C)C)OC(=O)CC(CCCCCCC)OC(=O)CC(CCCCCCC)OC1OC(C)C(O)C(OC2OC(C)C(OC(C)=O)C(O)C2O)C1O` (stereo not given) showed a TGI of 9.2 µM.

For the next assay, the system named is LOX IMVI melanoma. Put plainly: NCI-60 cell line screen, 48 h.
`O=C1CS(=O)(=O)C(c2cccc(Oc3ccccc3)c2)N1c1ccc(Cl)cc1` (stereo not given) gave a TGI of 29.1 µM.

Turning to `Cc1n(CC(C)C)c2c([n+]1C)C(=O)c1ccccc1C2=O`, the TGI stood at 0.867 µM.

In turn, `Cc1c(-c2ccccc2)cc(O)c2nc3ccccc3n12` had a TGI of more than 100 µM.

As for `Cc1ccc(C(=O)O)c(/C=C2\Cc3ccc(C)cc3C2=O)c1`, the TGI is more than 100 µM.

Consider `C=C(CCOC)CCC1CCCCC(CN(C)C)C1=O` (stereo not given), for which the TGI is more than 100 µM.

Consider `COc1ccc(/C=C2\N=C(N3CCCCC3)NC2=O)cc1`, for which the TGI is more than 100 µM.

Turning to `NC(N)=NS(=O)(=O)c1ccc(NNc2c3ccccc3nc3ccccc23)cc1`, the TGI was 18.2 µM.

`COc1cc2c(cc1OCCCCCCCCCCN1C(=O)c3cccc4cccc(c34)C1=O)N=C[C@@H]1CCCN1C2=O` returned a TGI of 4.99 µM.

Regarding `COc1ccc(Cn2c(=O)c(OC)c(C)c3cc4ccccc4cc32)cc1`, the TGI worked out at 41.7 µM.

`N#Cc1c(-c2ccc(Cl)cc2)c2c(n(C3OC(CO)C(O)C(O)C3O)c1=S)CCCC2` (stereo not given) returned a TGI of more than 100 µM.

`COC(=O)C1Cc2cc3c(cc2C1=O)CCC3` (stereo not given) came in with a TGI of more than 100 µM.

In turn, `Cc1ccc2c(ccc(/C=C/c3ccc(O)c4ncccc34)[n+]2C)c1` had a TGI of 30.2 µM.

`CCOC(=O)c1ccc(N=C/C=C(\Nc2ccc(C(=O)OCC)cc2)C23CC4CC(CC(C4)C2)C3)cc1` had a TGI of more than 100 µM.

Molecule `CC(=O)SCCC(NC(=S)Nc1ccccc1)P(=O)(Oc1ccccc1)Oc1ccccc1` (stereo not given) displayed a TGI of more than 100 µM.

Take `NC(=Nc1ccccc1Cl)c1ccccc1N`: the TGI is more than 100 µM.

The next assay relates to MALME-3M melanoma. Nature of the assay: NCI-60 cell line screen, 48 h.
`O=C1CS(=O)(=O)C(c2cccc(Oc3ccccc3)c2)N1c1ccc(Cl)cc1` (stereo not given) showed a TGI of 73.2 µM.

As to `CC1C2CC(C(S(=O)(=O)O)C2=O)C1(C)C` (stereo not given), the TGI is more than 100 µM.

Regarding `Cc1n(CC(C)C)c2c([n+]1C)C(=O)c1ccccc1C2=O`, the TGI was determined as 0.28 µM.

`Cc1c(-c2ccccc2)cc(O)c2nc3ccccc3n12` returned a TGI of more than 100 µM.

With `Cc1ccc(C(=O)O)c(/C=C2\Cc3ccc(C)cc3C2=O)c1`, the TGI is more than 100 µM.

`C=C(CCOC)CCC1CCCCC(CN(C)C)C1=O` (stereo not given) displayed a TGI of more than 100 µM.

Molecule `COc1ccc(/C=C2\N=C(N3CCCCC3)NC2=O)cc1` gave a TGI of more than 100 µM.

In turn, `NC(N)=NS(=O)(=O)c1ccc(NNc2c3ccccc3nc3ccccc23)cc1` displayed a TGI of 32.8 µM.

As to `COc1cc2c(cc1OCCCCCCCCCCN1C(=O)c3cccc4cccc(c34)C1=O)N=C[C@@H]1CCCN1C2=O`, the TGI is 34 µM.

In turn, `O=C(NC1=C(Cl)C(=O)c2ccccc2C1=O)c1ccccc1` gave a TGI of 31.3 µM.

`COc1ccc(Cn2c(=O)c(OC)c(C)c3cc4ccccc4cc32)cc1` showed a TGI of 72.7 µM.

For the molecule `N#Cc1c(-c2ccc(Cl)cc2)c2c(n(C3OC(CO)C(O)C(O)C3O)c1=S)CCCC2` (stereo not given), the TGI is more than 100 µM.

`COC(=O)C1Cc2cc3c(cc2C1=O)CCC3` (stereo not given) yielded a TGI of more than 100 µM.

The molecule `Cc1ccc2c(ccc(/C=C/c3ccc(O)c4ncccc34)[n+]2C)c1` gave a TGI of 31.4 µM.

`CCOC(=O)c1ccc(N=C/C=C(\Nc2ccc(C(=O)OCC)cc2)C23CC4CC(CC(C4)C2)C3)cc1` came in with a TGI of more than 100 µM.

`CC(=O)SCCC(NC(=S)Nc1ccccc1)P(=O)(Oc1ccccc1)Oc1ccccc1` (stereo not given) gave a TGI of more than 100 µM.

With `NC(=Nc1ccccc1Cl)c1ccccc1N`, the TGI was more than 100 µM.

Molecule `CCCCCCCC(CC(=O)NC(CO)C(=O)NC(CO)CC(C)C)OC(=O)CC(CCCCCCC)OC(=O)CC(CCCCCCC)OC1OC(C)C(O)C(OC2OC(C)C(OC(C)=O)C(O)C2O)C1O` (stereo not given) had a TGI of 23.9 µM.

For another assay, the system named is MDA-N. Put plainly: NCI-60 cell line screen, 48 h.
Regarding `O=C1CS(=O)(=O)C(c2cccc(Oc3ccccc3)c2)N1c1ccc(Cl)cc1` (stereo not given), the TGI was 53 µM.

In turn, `CC1C2CC(C(S(=O)(=O)O)C2=O)C1(C)C` (stereo not given) gave a TGI of more than 100 µM.

`Cc1n(CC(C)C)c2c([n+]1C)C(=O)c1ccccc1C2=O`: the TGI came to 0.314 µM.

`Cc1c(-c2ccccc2)cc(O)c2nc3ccccc3n12` returned a TGI of more than 100 µM.

As for `Cc1ccc(C(=O)O)c(/C=C2\Cc3ccc(C)cc3C2=O)c1`, the TGI is more than 100 µM.

In the case of `C=C(CCOC)CCC1CCCCC(CN(C)C)C1=O` (stereo not given), the TGI was more than 100 µM.

On to `COc1ccc(/C=C2\N=C(N3CCCCC3)NC2=O)cc1`, for which the TGI was more than 100 µM.

`NC(N)=NS(=O)(=O)c1ccc(NNc2c3ccccc3nc3ccccc23)cc1` yielded a TGI of 28.4 µM.

In the case of `COc1cc2c(cc1OCCCCCCCCCCN1C(=O)c3cccc4cccc(c34)C1=O)N=C[C@@H]1CCCN1C2=O`, the TGI was 30 µM.

`O=C(NC1=C(Cl)C(=O)c2ccccc2C1=O)c1ccccc1`: the TGI came to 28.1 µM.

Molecule `COc1ccc(Cn2c(=O)c(OC)c(C)c3cc4ccccc4cc32)cc1` displayed a TGI of more than 100 µM.

As for `N#Cc1c(-c2ccc(Cl)cc2)c2c(n(C3OC(CO)C(O)C(O)C3O)c1=S)CCCC2` (stereo not given), the TGI was more than 100 µM.

Turning to `COC(=O)C1Cc2cc3c(cc2C1=O)CCC3` (stereo not given), the TGI is more than 100 µM.

`Cc1ccc2c(ccc(/C=C/c3ccc(O)c4ncccc34)[n+]2C)c1` yielded a TGI of more than 44.9 µM.

As to `CCOC(=O)c1ccc(N=C/C=C(\Nc2ccc(C(=O)OCC)cc2)C23CC4CC(CC(C4)C2)C3)cc1`, the TGI is more than 100 µM.

Regarding `CC(=O)SCCC(NC(=S)Nc1ccccc1)P(=O)(Oc1ccccc1)Oc1ccccc1` (stereo not given), the TGI is more than 100 µM.

Molecule `NC(=Nc1ccccc1Cl)c1ccccc1N` displayed a TGI of more than 100 µM.

As to `CCCCCCCC(CC(=O)NC(CO)C(=O)NC(CO)CC(C)C)OC(=O)CC(CCCCCCC)OC(=O)CC(CCCCCCC)OC1OC(C)C(O)C(OC2OC(C)C(OC(C)=O)C(O)C2O)C1O` (stereo not given), the TGI came out at 14 µM.

In another assay the test system is NCI-H226 lung. Put plainly: NCI-60 cell line screen, 48 h.
`O=C1CS(=O)(=O)C(c2cccc(Oc3ccccc3)c2)N1c1ccc(Cl)cc1` (stereo not given) registered a TGI of 68.3 µM.

`CC1C2CC(C(S(=O)(=O)O)C2=O)C1(C)C` (stereo not given) returned a TGI of more than 100 µM.

On to `Cc1n(CC(C)C)c2c([n+]1C)C(=O)c1ccccc1C2=O`, for which the TGI was 1.27 µM.

On to `Cc1c(-c2ccccc2)cc(O)c2nc3ccccc3n12`, for which the TGI was more than 100 µM.

On to `Cc1ccc(C(=O)O)c(/C=C2\Cc3ccc(C)cc3C2=O)c1`, for which the TGI amounted to 85.2 µM.

Regarding `C=C(CCOC)CCC1CCCCC(CN(C)C)C1=O` (stereo not given), the TGI was more than 100 µM.

`COc1ccc(/C=C2\N=C(N3CCCCC3)NC2=O)cc1` had a TGI of more than 100 µM.

`NC(N)=NS(=O)(=O)c1ccc(NNc2c3ccccc3nc3ccccc23)cc1` came in with a TGI of 20.5 µM.

Molecule `COc1cc2c(cc1OCCCCCCCCCCN1C(=O)c3cccc4cccc(c34)C1=O)N=C[C@@H]1CCCN1C2=O` returned a TGI of 5.25 µM.

Turning to `O=C(NC1=C(Cl)C(=O)c2ccccc2C1=O)c1ccccc1`, the TGI was 69 µM.

For `COc1ccc(Cn2c(=O)c(OC)c(C)c3cc4ccccc4cc32)cc1`, the TGI is more than 100 µM.

In the case of `N#Cc1c(-c2ccc(Cl)cc2)c2c(n(C3OC(CO)C(O)C(O)C3O)c1=S)CCCC2` (stereo not given), the TGI was more than 100 µM.

As to `COC(=O)C1Cc2cc3c(cc2C1=O)CCC3` (stereo not given), the TGI is more than 100 µM.

Molecule `Cc1ccc2c(ccc(/C=C/c3ccc(O)c4ncccc34)[n+]2C)c1` returned a TGI of 46.5 µM.

As to `CCOC(=O)c1ccc(N=C/C=C(\Nc2ccc(C(=O)OCC)cc2)C23CC4CC(CC(C4)C2)C3)cc1`, the TGI is more than 100 µM.

For the molecule `CC(=O)SCCC(NC(=S)Nc1ccccc1)P(=O)(Oc1ccccc1)Oc1ccccc1` (stereo not given), the TGI is more than 100 µM.
